Test results: PubChem BioAssay (NCI)
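Test compounds were applied to cells in 96-well plates for 48 hours at 5 doses. GI50 marks 50% less growth. TGI is the concentration that stops growth completely.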

What was measured:
Experiment in all cases: NCI anticancer screen, dose series, 48 h
EKVX NSCLC = test system: EKVX NSCLC
SNB-78 CNS = test system: SNB-78 CNS
U251 CNS = test system: U251 CNS
UO-31 renal = test system: UO-31 renal
HOP-92 NSCLC = test system: HOP-92 NSCLC
HOP-18 NSCLC = test system: HOP-18 NSCLC
SK-MEL-28 melanoma = test system: SK-MEL-28 melanoma
MALME-3M melanoma = test system: MALME-3M melanoma
OVCAR-3 ovarian = test system: OVCAR-3 ovarian
NCI-H226 lung = test system: NCI-H226 lung
KM20L2 colon = test system: KM20L2 colon
OVCAR-4 ovarian = test system: OVCAR-4 ovarian
HL-60(TB) leukemia = test system: HL-60(TB) leukemia
SN12C renal = test system: SN12C renal
IGROV1 ovarian = test system: IGROV1 ovarian
HCT-15 colon = test system: HCT-15 colon
786-0 renal = test system: 786-0 renal
DLD-1 colon = test system: DLD-1 colon
TK-10 renal = test system: TK-10 renal
HCC-2998 colon = test system: HCC-2998 colon
RPMI-8226 leukemia = test system: RPMI-8226 leukemia
HCT-116 colon = test system: HCT-116 colon
HT29 colon = test system: HT29 colon
NCI-H460 lung = test system: NCI-H460 lung
SK-MEL-2 melanoma = test system: SK-MEL-2 melanoma
A498 renal = test system: A498 renal
SNB-19 CNS = test system: SNB-19 CNS
LXFL 529 NSCLC = test system: LXFL 529 NSCLC
SK-MEL-5 melanoma = test system: SK-MEL-5 melanoma
DMS 273 small cell lung = test system: DMS 273 small cell lung
KM12 colon = test system: KM12 colon
M14 melanoma = test system: M14 melanoma
NCI-H23 lung = test system: NCI-H23 lung
OVCAR-5 ovarian = test system: OVCAR-5 ovarian
SW-620 colon = test system: SW-620 colon
NCI-H522 lung = test system: NCI-H522 lung
COLO 205 colon = test system: COLO 205 colon
SF-539 CNS = test system: SF-539 CNS
CAKI-1 renal = test system: CAKI-1 renal
SNB-75 CNS = test system: SNB-75 CNS
K-562 leukemia = test system: K-562 leukemia
OVCAR-8 ovarian = test system: OVCAR-8 ovarian
SF-295 CNS = test system: SF-295 CNS
SK-OV-3 ovarian = test system: SK-OV-3 ovarian
HOP-62 NSCLC = test system: HOP-62 NSCLC
SF-268 CNS = test system: SF-268 CNS
LOX IMVI melanoma = test system: LOX IMVI melanoma
MOLT-4 leukemia = test system: MOLT-4 leukemia
A549 NSCLC = test system: A549 NSCLC
RXF 393 renal = test system: RXF 393 renal
UACC-62 melanoma = test system: UACC-62 melanoma
UACC-257 melanoma = test system: UACC-257 melanoma
CCRF-CEM leukemia = test system: CCRF-CEM leukemia
ACHN renal = test system: ACHN renal

## CCC(C(=O)[O-])C(=O)[O-].CCC(C(=O)[O-])C(=O)[O-].N.N.NCCCCCN.[Pt+4].[Pt+4]
EKVX NSCLC
  GI50: > 100 µM
  TGI: > 100 µM
SNB-78 CNS
  GI50: > 100 µM
  TGI: > 100 µM
U251 CNS
  GI50: > 100 µM
  TGI: > 100 µM
UO-31 renal
  GI50: > 100 µM
  TGI: > 100 µM
HOP-92 NSCLC
  GI50: > 100 µM
  TGI: > 100 µM
HOP-18 NSCLC
  GI50: > 100 µM
  TGI: > 100 µM
SK-MEL-28 melanoma
  GI50: > 100 µM
  TGI: > 100 µM
MALME-3M melanoma
  GI50: > 100 µM
  TGI: > 100 µM
OVCAR-3 ovarian
  GI50: > 100 µM
  TGI: > 100 µM
NCI-H226 lung
  GI50: 23.4 µM
  TGI: 94.7 µM
KM20L2 colon
  GI50: > 100 µM
  TGI: > 100 µM
OVCAR-4 ovarian
  GI50: > 100 µM
  TGI: > 100 µM
HL-60(TB) leukemia
  GI50: 43.1 µM
  TGI: > 100 µM
SN12C renal
  GI50: 15 µM
  TGI: 87.3 µM
IGROV1 ovarian
  GI50: > 100 µM
  TGI: > 100 µM
HCT-15 colon
  GI50: > 100 µM
  TGI: > 100 µM
786-0 renal
  GI50: > 100 µM
  TGI: > 100 µM
DLD-1 colon
  GI50: > 100 µM
  TGI: > 100 µM
TK-10 renal
  GI50: > 100 µM
  TGI: > 100 µM
HCC-2998 colon
  GI50: > 100 µM
  TGI: > 100 µM
RPMI-8226 leukemia
  GI50: > 100 µM
  TGI: > 100 µM
HCT-116 colon
  GI50: > 100 µM
  TGI: > 100 µM
HT29 colon
  GI50: > 100 µM
  TGI: > 100 µM
NCI-H460 lung
  GI50: 21.3 µM
  TGI: > 100 µM
SK-MEL-2 melanoma
  GI50: > 100 µM
  TGI: > 100 µM
A498 renal
  GI50: > 100 µM
  TGI: > 100 µM
SNB-19 CNS
  GI50: > 100 µM
  TGI: > 100 µM
LXFL 529 NSCLC
  GI50: > 100 µM
  TGI: > 100 µM
SK-MEL-5 melanoma
  GI50: > 100 µM
  TGI: > 100 µM
DMS 273 small cell lung
  GI50: 95.8 µM
  TGI: > 100 µM
KM12 colon
  GI50: > 100 µM
  TGI: > 100 µM
M14 melanoma
  GI50: > 100 µM
  TGI: > 100 µM
NCI-H23 lung
  GI50: > 100 µM
  TGI: > 100 µM
OVCAR-5 ovarian
  GI50: > 100 µM
  TGI: > 100 µM
SW-620 colon
  GI50: > 100 µM
  TGI: > 100 µM
NCI-H522 lung
  GI50: > 100 µM
  TGI: > 100 µM
COLO 205 colon
  GI50: 47.8 µM
  TGI: > 100 µM
SF-539 CNS
  GI50: > 100 µM
  TGI: > 100 µM
CAKI-1 renal
  GI50: > 100 µM
  TGI: > 100 µM
SNB-75 CNS
  GI50: > 100 µM
  TGI: > 100 µM
K-562 leukemia
  GI50: > 100 µM
  TGI: > 100 µM
OVCAR-8 ovarian
  GI50: > 100 µM
  TGI: > 100 µM
SF-295 CNS
  GI50: > 100 µM
  TGI: > 100 µM
SK-OV-3 ovarian
  GI50: > 100 µM
  TGI: > 100 µM
HOP-62 NSCLC
  GI50: > 100 µM
  TGI: > 100 µM
SF-268 CNS
  GI50: > 100 µM
  TGI: > 100 µM
LOX IMVI melanoma
  GI50: > 100 µM
  TGI: > 100 µM
MOLT-4 leukemia
  GI50: 84.3 µM
  TGI: > 100 µM
A549 NSCLC
  GI50: > 100 µM
  TGI: > 100 µM
RXF 393 renal
  GI50: > 100 µM
  TGI: > 100 µM
UACC-62 melanoma
  GI50: 38.3 µM
  TGI: > 100 µM
UACC-257 melanoma
  GI50: > 100 µM
  TGI: > 100 µM
CCRF-CEM leukemia
  GI50: 55.9 µM
  TGI: > 100 µM
ACHN renal
  GI50: 72.6 µM
  TGI: > 100 µM
